# Measurements from patent publication US20230312587A1, “PTERIDINONE COMPOUNDS AND USES THEREOF” (Vertex Pharmaceutical Incorporated, priority 2018, published 2023).
# System: β-catenin-TCF-mediated reporter transcription activity in Colo 205 cells
# Assay: Colo 205 reporter assay (TCF/LEF luciferase)
# Format: cell-based
# Conditions: Colo 205 TCF/LEF luciferase reporter, five hours after addition of compound; read-out: TCF reporter Colo205 IC50
# Procedure, shortened: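 Luciferase signal from a TCF/LEF-driven reporter, stably integrated in Colo 205 colon cancer cells, was measured 5 h after compound addition.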
row,SMILES,IC50
1,"COCC1(C)C(=O)Nc2c(C)nc(NCc3cnn(Cc4ccc(C(F)(F)F)nc4)c3)nc2N1C (stereo not shown) [Compound 707, 7-(methoxymethyl)-4,7,8-trimethyl-2-(((1-((6-(trifluoromethyl)pyridin-3-yl)methyl)-1H-pyrazol-4-yl)methyl)amino)-7,8-dihydropteridin-6(5H)-one]",300 to 1000 nM
2,"COCC1(C)C(=O)Nc2c(C)nc(NCc3cnn(Cc4cc(C(F)(F)F)nn4C)c3)nc2N1C (stereo not shown) [Compound 709, 7-(methoxymethyl)-4,7,8-trimethyl-2-(((1-((1-methyl-3-(trifluoromethyl)-1H-pyrazol-5-yl)methyl)-1H-pyrazol-4-yl)methyl)amino)-7,8-dihydropteridin-6(5H)-one]",300 to 1000 nM
3,"COCC1(C)C(=O)Nc2c(C)nc(NC3CN(C(=O)c4cc(F)c(F)c(F)c4)C3)nc2N1C (stereo not shown) [Compound 722, 7-(methoxymethyl)-4,7,8-trimethyl-2-((1-(3,4,5-trifluorobenzoyl)azetidin-3-yl)amino)-7,8-dihydropteridin-6(5H)-one]",1000 to 5000 nM

# Same assay, conditions: Homo sapiens, COLO 205, 5 h, Colo 205 TCF/LEF luciferase reporter, five hours after addition of compound; read-out: TCF reporter Colo205 IC50
row,SMILES,IC50
1,"CC(=O)c1ccc(OC[C@H]2C[C@@H](Nc3nc(C)c4c(n3)N(C)[C@@H](C(C)C)C(=O)N4)C2)cn1 [Compound 696, (S)-2-((cis-3-(((6-acetylpyridin-3-yl)oxy)methyl)cyclobutyl)amino)-7-isopropyl-4,8-dimethyl-7,8-dihydropteridin-6(5H)-one]",300 to 1000 nM
2,"Cc1nc(N[C@H]2C[C@@H](Cn3ccc(C(F)(F)F)n3)C2)nc2c1NC(=O)[C@H](C)N2C [Compound 698, (S)-4,7,8-trimethyl-2-((cis-3-((3-(trifluoromethyl)-1H-pyrazol-1-yl)methyl)cyclobutyl)amino)-7,8-dihydropteridin-6(5H)-one]",300 to 1000 nM
3,"COCC1(C)C(=O)Nc2c(C)nc(NCc3cnn(Cc4ccc(C(F)(F)F)nc4)c3)nc2N1C (stereo not shown) [Compound 703, 7-(methoxymethyl)-4,7,8-trimethyl-2-(((1-((6-(trifluoromethyl)pyridin-3-yl)methyl)-1H-pyrazol-4-yl)methyl)amino)-7,8-dihydropteridin-6(5H)-one]",300 to 1000 nM
4,"COCC1(C)C(=O)Nc2c(C)nc(NCc3cnn(Cc4cc(C(F)(F)F)nn4C)c3)nc2N1C (stereo not shown) [Compound 704, 7-(methoxymethyl)-4,7,8-trimethyl-2-(((1-((1-methyl-3-(trifluoromethyl)-1H-pyrazol-5-yl)methyl)-1H-pyrazol-4-yl)methyl)amino)-7,8-dihydropteridin-6(5H)-one]",< 300 nM
5,"CO[C@H](C)[C@H]1C(=O)Nc2c(C)nc(N[C@H]3C[C@@H](CNc4cnc(C(F)(F)F)cn4)C3)nc2N1C [Compound 712, (S)-7-((R)—1-methoxyethyl)-4,8-dimethyl-2-((cis-3-(((5-(trifluoromethyl)pyrazin-2-yl)amino)methyl)cyclobutyl)amino)-7,8-dihydropteridin-6(5H)-one]",< 300 nM
6,"CC[C@H]1C(=O)Nc2c(C)nc(N[C@H]3C[C@@H](CNc4cnc(C(F)(F)F)cn4)C3)nc2N1C [Compound 713, (S)-7-ethyl-4,8-dimethyl-2-((cis-3-(((5-(trifluoromethyl)pyrazin-2-yl)amino)methyl)cyclobutyl)amino)-7,8-dihydropteridin-6(5H)-one]",< 300 nM
7,"Cc1nc(N[C@H]2C[C@H](Oc3ccc(C(F)(F)F)nc3)C2)nc2c1NC(=O)[C@H](COC(C)(C)C)N2C [Compound 725, (S)-7-(tert-butoxymethyl)-4,8-dimethyl-2-((trans-3-((6-(trifluoromethyl)pyridin-3-yl)oxy)cyclobutyl)amino)-7,8-dihydropteridin-6(5H)-one]",< 300 nM
8,"Cc1nc(NCc2cnn(Cc3ccc(C(F)(F)F)nc3)c2)nc2c1NC(=O)[C@H](C(C)(C)O)N2C [Compound 726, (S)-7-(2-hydroxypropan-2-yl)-4,8-dimethyl-2-(((1-((6-(trifluoromethyl)pyridin-3-yl)methyl)-1H-pyrazol-4-yl)methyl)amino)-7,8-dihydropteridin-6(5H)-one]",1000 to 5000 nM
9,"Cc1nc(N[C@@H]2CC[C@H](Nc3cnc(C(F)(F)F)cn3)C2)nc2c1NC(=O)[C@H](C)N2C [Compound 737, (S)-4,7,8-trimethyl-2-(((1R,3S)-3-((5-(trifluoromethyl)pyrazin-2-yl)amino)cyclopentyl)amino)-7,8-dihydropteridin-6(5H)-one]",1000 to 5000 nM
10,"CC[C@H]1C(=O)Nc2c(C)nc(N[C@@H]3CC[C@H](Nc4cnc(C(F)(F)F)cn4)C3)nc2N1C [Compound 738, (S)-7-ethyl-4,8-dimethyl-2-(((1R,3S)-3-((5-(trifluoromethyl)pyrazin-2-yl)amino)cyclopentyl)amino)-7,8-dihydropteridin-6(5H)-one]",300 to 1000 nM

# Further lines, results first:
row,IC50,SMILES
1,< 300 nM,"Cc1nc(N[C@H]2C[C@@H](Cn3nc(Cl)c(C#N)n3)C2)nc2c1NC(=O)[C@H](C(C)C)N2C [Compound 695, 5-chloro-2-((cis-3-(((S)-7-isopropyl-4,8-dimethyl-6-oxo-5,6,7,8-tetrahydropteridin-2-yl)amino)cyclobutyl)methyl)-2H-1,2,3-triazole-4-carbonitrile]"
2,1000 to 5000 nM,"Cc1nc(NC2CN(C(=O)C34CC(C(F)(F)F)(C3)C4)C2)nc2c1NC(=O)[C@H](C(C)C)N2C [Compound 699, (S)-7-isopropyl-4,8-dimethyl-2-((1-(3-(trifluoromethyl)bicyclo[1.1.1]pentane-1-carbonyl)azetidin-3-yl)amino)-7,8-dihydropteridin-6(5H)-one]"
3,< 300 nM,"Cc1nc(N[C@H]2C[C@@H](CNc3cnc(C(F)(F)F)cn3)C2)nc2c1NC(=O)[C@H](C)N2C [Compound 714, (S)-4,7,8-trimethyl-2-((cis-3-(((5-(trifluoromethyl)pyrazin-2-yl)amino)methyl)cyclobutyl)amino)-7,8-dihydropteridin-6(5H)-one]"
4,1000 to 5000 nM,"Cc1nc(N[C@H]2C[C@@H](Nc3ncc(C#N)cc3F)C2)nc2c1NC(=O)[C@H](C(C)C)N2C [Compound 715, 5-fluoro-6-((cis-3-(((S)-7-isopropyl-4,8-dimethyl-6-oxo-5,6,7,8-tetrahydropteridin-2-yl)amino)cyclobutyl)amino)nicotinonitrile]"
5,1000 to 5000 nM,"COCC1(C)C(=O)Nc2c(C)nc(NC3CN(C(=O)c4cc(F)c(F)c(F)c4)C3)nc2N1C (stereo not shown) [Compound 721, 7-(methoxymethyl)-4,7,8-trimethyl-2-((1-(3,4,5-trifluorobenzoyl)azetidin-3-yl)amino)-7,8-dihydropteridin-6(5H)-one]"
6,< 300 nM,"Cc1nc(NCc2cnn(CC3CC(F)(F)C3)c2)nc2c1NC(=O)[C@H](C(C)C)N2C [Compound 727, (S)-2-(((1-((3,3-difluorocyclobutyl)methyl)-1H-pyrazol-4-yl)methyl)amino)-7-isopropyl-4,8-dimethyl-7,8-dihydropteridin-6(5H)-one]"
7,< 300 nM,"CO[C@H](C)[C@H]1C(=O)Nc2c(C)nc(NCc3cnn(CC4CC(F)(F)C4)c3)nc2N1C [Compound 728, (S)-2-(((1-((3,3-difluorocyclobutyl)methyl)-1H-pyrazol-4-yl)methyl)amino)-7-((R)-1-methoxyethyl)-4,8-dimethyl-7,8-dihydropteridin-6(5H)-one]"
8,< 300 nM,"Cc1nc(NCc2cnn(Cc3cc(F)c(F)c(F)c3)c2)nc2c1NC(=O)[C@H](C(C)(C)O)N2C [Compound 729, (S)-7-(2-hydroxypropan-2-yl)-4,8-dimethyl-2-(((1-(3,4,5-trifluorobenzyl)-1H-pyrazol-4-yl)methyl)amino)-7,8-dihydropteridin-6(5H)-one]"
9,1000 to 5000 nM,"Cc1nc(N[C@H]2C[C@H](n3ccc(C(F)(F)F)n3)C2)nc2c1NC(=O)[C@H](C(C)C)N2C [Compound 730, (S)-7-isopropyl-4,8-dimethyl-2-((trans-3-(3-(trifluoromethyl)-1H-pyrazol-1-yl)cyclobutyl)amino)-7,8-dihydropteridin-6(5H)-one]"
10,≥ 5000 nM,"CO[C@H](C)[C@H]1C(=O)Nc2c(C)nc(N[C@H]3C[C@H](n4ccc(C(F)(F)F)n4)C3)nc2N1C [Compound 731, (S)-7-((R)-1-methoxyethyl)-4,8-dimethyl-2-((trans-3-(3-(trifluoromethyl)-1H-pyrazol-1-yl)cyclobutyl)amino)-7,8-dihydropteridin-6(5H)-one]"
11,1000 to 5000 nM,"Cc1nc(N[C@H]2C[C@@H](Nc3ccc(F)cn3)C2)nc2c1NC(=O)[C@H](C(C)C)N2C [Compound 732, (S)-2-((cis-3-((5-fluoropyridin-2-yl)amino)cyclobutyl)amino)-7-isopropyl-4,8-dimethyl-7,8-dihydropteridin-6(5H)-one]"
12,≥ 5000 nM,"COc1ccc(N[C@H]2C[C@@H](Nc3nc(C)c4c(n3)N(C)[C@@H](C(C)C)C(=O)N4)C2)nc1 [Compound 733, (S)-7-isopropyl-2-((cis-3-((5-methoxypyridin-2-yl)amino)cyclobutyl)amino)-4,8-dimethyl-7,8-dihydropteridin-6(5H)-one]"
13,300 to 1000 nM,"Cc1nc(N[C@H]2C[C@@H](Nc3ncc(C(F)(F)F)cn3)C2)nc2c1NC(=O)[C@H](C(C)C)N2C [Compound 734, (S)-7-isopropyl-4,8-dimethyl-2-((cis-3-((5-(trifluoromethyl)pyrimidin-2-yl)amino)cyclobutyl)amino)-7,8-dihydropteridin-6(5H)-one]"
14,< 300 nM,"Cc1nc(N[C@@H]2CC[C@H](Nc3cnc(C(F)(F)F)cn3)C2)nc2c1NC(=O)[C@H](C(C)C)N2C [Compound 735, (S)-7-isopropyl-4,8-dimethyl-2-(((1R,3S)-3-((5-(trifluoromethyl)pyrazin-2-yl)amino)cyclopentyl)amino)-7,8-dihydropteridin-6(5H)-one]"
15,300 to 1000 nM,"CO[C@H](C)[C@H]1C(=O)Nc2c(C)nc(N[C@@H]3CC[C@H](Nc4cnc(C(F)(F)F)cn4)C3)nc2N1C [Compound 736, (S)-7-((R)—1-methoxyethyl)-4,8-dimethyl-2-(((1R,3S)-3-((5-(trifluoromethyl)pyrazin-2-yl)amino)cyclopentyl)amino)-7,8-dihydropteridin-6(5H)-one]"
